Measured values reported in ChEMBL document CHEMBL4507268 (2021).

Tests used:
[1] = target: T1, Inhibitor of nuclear factor kappa-B kinase subunit epsilon (Homo sapiens) (UniProt Q14164); details: Compound concentration 1000.0 nM
T1 sequence (whole entry): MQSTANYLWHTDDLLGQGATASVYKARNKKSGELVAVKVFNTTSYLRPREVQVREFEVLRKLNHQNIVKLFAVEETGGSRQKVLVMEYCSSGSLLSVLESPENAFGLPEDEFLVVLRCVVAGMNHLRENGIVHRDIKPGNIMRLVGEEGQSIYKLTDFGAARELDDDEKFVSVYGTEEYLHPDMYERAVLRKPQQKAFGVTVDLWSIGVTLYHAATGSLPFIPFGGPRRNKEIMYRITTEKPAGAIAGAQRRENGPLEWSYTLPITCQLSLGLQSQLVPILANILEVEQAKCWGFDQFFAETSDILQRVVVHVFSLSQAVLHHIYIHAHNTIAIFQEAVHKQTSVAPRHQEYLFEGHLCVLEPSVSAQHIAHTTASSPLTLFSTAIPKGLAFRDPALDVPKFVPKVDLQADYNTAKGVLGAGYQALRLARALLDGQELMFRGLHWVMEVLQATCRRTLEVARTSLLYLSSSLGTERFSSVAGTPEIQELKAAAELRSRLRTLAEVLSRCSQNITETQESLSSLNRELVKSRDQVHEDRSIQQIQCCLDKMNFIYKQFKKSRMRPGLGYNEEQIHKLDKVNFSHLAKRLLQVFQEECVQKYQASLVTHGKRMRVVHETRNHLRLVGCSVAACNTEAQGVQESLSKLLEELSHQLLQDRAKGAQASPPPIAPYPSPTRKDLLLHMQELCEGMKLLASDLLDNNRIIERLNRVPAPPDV

[2] = target: Mitogen-activated protein kinase kinase kinase 20 (Homo sapiens) (UniProt Q9NYL2); details: Compound concentration 1000.0 nM
[3] = target: Calcium/calmodulin-dependent protein kinase type II subunit beta (Homo sapiens) (UniProt Q13554); details: Compound concentration 1000.0 nM
[4] = target: T2, Discoidin domain-containing receptor 2 (Homo sapiens) (UniProt Q16832); details: Compound concentration 1000.0 nM
T2 sequence (whole entry): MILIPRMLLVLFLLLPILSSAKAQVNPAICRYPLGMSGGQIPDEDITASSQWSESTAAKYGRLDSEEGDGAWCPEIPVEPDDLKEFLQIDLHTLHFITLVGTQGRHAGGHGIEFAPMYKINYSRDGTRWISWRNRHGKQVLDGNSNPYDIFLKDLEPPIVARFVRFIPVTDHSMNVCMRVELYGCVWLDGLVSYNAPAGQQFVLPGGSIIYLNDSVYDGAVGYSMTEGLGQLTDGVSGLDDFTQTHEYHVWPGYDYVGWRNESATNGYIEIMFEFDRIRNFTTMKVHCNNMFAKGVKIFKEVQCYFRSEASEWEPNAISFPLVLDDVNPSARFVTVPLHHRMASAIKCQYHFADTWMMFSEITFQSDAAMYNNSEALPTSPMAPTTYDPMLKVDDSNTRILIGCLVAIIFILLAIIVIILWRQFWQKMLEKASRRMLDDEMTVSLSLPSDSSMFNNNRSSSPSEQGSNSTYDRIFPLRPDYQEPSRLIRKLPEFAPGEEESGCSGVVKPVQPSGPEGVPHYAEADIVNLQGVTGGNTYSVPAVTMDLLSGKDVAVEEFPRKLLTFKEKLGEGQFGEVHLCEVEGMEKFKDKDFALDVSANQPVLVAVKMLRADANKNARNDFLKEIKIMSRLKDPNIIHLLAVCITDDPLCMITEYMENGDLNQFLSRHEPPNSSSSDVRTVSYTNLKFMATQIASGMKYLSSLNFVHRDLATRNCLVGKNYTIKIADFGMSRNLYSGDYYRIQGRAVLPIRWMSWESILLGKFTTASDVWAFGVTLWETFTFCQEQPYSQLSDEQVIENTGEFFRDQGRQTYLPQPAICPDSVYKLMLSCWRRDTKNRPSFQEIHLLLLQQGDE

[5] = target: 5-hydroxytryptamine receptor 3A (Homo sapiens) (UniProt P46098); details: Compound concentration 10.0 uM
[6] = target: Membrane-associated tyrosine- and threonine-specific cdc2-inhibitory kinase (Homo sapiens) (UniProt Q99640); details: Compound concentration 1000.0 nM
[7] = target: Macrophage colony-stimulating factor 1 receptor (Homo sapiens) (UniProt P07333); details: Compound concentration 1000.0 nM
[8] = target: Serine/threonine-protein kinase Nek4 (Homo sapiens) (UniProt P51957); details: Compound concentration 1000.0 nM
Serine/threonine-protein kinase Nek4 (Homo sapiens), sequence (P51957 whole entry, looked up): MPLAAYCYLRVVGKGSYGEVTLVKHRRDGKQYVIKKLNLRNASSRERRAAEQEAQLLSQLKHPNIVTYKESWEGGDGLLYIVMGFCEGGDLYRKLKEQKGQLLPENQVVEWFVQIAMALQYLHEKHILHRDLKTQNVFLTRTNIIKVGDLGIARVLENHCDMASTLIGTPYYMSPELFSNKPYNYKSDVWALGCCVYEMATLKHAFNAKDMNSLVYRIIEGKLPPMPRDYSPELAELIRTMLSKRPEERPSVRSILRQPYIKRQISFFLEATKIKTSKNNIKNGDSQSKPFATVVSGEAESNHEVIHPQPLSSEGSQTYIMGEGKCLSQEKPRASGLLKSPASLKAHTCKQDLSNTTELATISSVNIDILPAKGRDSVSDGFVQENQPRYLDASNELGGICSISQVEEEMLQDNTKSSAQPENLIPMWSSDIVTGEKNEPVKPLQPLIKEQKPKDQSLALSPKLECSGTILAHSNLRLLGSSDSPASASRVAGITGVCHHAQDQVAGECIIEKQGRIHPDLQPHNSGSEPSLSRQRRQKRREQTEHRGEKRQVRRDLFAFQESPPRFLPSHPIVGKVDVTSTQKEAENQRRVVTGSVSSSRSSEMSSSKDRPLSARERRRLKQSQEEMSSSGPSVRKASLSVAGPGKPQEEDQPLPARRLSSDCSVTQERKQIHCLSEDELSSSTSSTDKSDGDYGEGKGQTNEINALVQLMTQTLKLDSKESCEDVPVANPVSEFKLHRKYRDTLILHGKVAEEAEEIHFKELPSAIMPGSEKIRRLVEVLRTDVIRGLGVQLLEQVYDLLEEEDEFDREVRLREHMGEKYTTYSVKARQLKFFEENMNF

Calcium/calmodulin-dependent protein kinase type II subunit beta (Homo sapiens), sequence (Q13554 whole entry, the tested form may be a part): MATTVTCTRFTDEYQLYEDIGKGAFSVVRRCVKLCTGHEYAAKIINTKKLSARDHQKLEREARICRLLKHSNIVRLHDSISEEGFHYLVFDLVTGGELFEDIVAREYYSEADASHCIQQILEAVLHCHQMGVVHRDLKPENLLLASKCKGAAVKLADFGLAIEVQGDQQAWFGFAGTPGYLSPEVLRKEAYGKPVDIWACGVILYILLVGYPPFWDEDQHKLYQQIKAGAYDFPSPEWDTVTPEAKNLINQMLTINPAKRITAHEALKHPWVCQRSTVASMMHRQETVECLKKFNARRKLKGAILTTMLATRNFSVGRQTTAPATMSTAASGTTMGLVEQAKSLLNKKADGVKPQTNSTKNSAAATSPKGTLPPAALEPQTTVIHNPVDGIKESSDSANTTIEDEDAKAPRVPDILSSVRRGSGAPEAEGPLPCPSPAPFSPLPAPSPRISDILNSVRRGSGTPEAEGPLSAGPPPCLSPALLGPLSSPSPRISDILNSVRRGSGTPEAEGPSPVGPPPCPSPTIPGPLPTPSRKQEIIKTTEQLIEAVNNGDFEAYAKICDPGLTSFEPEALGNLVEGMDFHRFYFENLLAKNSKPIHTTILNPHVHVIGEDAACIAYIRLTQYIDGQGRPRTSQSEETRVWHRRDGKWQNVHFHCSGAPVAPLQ
Membrane-associated tyrosine- and threonine-specific cdc2-inhibitory kinase (Homo sapiens), sequence (Q99640 whole entry): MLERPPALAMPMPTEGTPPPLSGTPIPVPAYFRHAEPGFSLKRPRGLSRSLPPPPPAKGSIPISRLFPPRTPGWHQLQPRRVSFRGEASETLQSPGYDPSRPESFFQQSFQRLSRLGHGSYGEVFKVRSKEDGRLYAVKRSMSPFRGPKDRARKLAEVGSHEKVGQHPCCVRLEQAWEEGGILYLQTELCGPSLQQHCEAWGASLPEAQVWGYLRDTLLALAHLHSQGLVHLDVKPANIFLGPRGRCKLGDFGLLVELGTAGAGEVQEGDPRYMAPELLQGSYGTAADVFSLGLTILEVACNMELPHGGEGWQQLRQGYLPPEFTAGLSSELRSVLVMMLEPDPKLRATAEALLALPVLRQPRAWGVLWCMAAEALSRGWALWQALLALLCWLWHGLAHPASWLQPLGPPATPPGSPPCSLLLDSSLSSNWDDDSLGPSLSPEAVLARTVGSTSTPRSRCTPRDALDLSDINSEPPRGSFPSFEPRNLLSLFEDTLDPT
Macrophage colony-stimulating factor 1 receptor (Homo sapiens), sequence (P07333 whole entry): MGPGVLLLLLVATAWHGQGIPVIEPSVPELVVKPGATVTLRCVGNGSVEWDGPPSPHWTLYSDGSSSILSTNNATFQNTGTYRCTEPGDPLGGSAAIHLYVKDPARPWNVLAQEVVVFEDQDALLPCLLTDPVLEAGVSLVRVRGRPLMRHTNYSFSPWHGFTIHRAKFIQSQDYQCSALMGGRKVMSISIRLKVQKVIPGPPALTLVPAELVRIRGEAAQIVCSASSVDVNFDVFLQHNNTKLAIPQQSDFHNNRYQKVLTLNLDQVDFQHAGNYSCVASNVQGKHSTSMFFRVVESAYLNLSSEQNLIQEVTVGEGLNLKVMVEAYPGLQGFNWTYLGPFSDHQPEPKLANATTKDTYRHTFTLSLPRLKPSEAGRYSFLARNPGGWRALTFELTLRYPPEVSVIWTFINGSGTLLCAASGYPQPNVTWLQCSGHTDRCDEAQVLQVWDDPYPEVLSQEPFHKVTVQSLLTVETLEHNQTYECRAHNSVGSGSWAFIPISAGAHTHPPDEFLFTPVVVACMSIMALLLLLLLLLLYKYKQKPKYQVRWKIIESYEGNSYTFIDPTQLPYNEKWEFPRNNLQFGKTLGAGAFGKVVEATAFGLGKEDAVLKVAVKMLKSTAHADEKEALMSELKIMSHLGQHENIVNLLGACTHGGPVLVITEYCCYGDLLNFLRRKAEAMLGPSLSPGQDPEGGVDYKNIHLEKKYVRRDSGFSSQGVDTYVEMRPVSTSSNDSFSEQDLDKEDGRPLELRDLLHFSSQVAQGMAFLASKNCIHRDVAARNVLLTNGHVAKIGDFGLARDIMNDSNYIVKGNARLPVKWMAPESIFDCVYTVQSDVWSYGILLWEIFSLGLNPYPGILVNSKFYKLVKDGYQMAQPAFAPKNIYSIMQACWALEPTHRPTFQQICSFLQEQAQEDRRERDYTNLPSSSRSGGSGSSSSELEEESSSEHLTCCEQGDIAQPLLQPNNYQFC
5-hydroxytryptamine receptor 3A (Homo sapiens), sequence (P46098 whole entry): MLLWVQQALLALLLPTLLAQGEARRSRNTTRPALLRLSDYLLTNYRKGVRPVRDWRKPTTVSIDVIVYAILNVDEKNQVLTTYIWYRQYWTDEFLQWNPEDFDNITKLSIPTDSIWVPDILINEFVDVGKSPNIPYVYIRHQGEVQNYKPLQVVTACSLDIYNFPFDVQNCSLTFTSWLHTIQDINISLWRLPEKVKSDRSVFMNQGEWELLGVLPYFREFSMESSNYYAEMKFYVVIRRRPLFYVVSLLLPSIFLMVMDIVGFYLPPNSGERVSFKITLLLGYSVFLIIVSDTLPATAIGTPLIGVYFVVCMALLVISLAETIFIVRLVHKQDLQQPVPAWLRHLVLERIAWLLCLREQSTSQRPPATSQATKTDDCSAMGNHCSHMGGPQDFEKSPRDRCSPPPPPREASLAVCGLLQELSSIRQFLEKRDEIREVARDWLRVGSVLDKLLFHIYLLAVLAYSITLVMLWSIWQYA
Mitogen-activated protein kinase kinase kinase 20 (Homo sapiens), sequence (Q9NYL2 2-800 limits assumed): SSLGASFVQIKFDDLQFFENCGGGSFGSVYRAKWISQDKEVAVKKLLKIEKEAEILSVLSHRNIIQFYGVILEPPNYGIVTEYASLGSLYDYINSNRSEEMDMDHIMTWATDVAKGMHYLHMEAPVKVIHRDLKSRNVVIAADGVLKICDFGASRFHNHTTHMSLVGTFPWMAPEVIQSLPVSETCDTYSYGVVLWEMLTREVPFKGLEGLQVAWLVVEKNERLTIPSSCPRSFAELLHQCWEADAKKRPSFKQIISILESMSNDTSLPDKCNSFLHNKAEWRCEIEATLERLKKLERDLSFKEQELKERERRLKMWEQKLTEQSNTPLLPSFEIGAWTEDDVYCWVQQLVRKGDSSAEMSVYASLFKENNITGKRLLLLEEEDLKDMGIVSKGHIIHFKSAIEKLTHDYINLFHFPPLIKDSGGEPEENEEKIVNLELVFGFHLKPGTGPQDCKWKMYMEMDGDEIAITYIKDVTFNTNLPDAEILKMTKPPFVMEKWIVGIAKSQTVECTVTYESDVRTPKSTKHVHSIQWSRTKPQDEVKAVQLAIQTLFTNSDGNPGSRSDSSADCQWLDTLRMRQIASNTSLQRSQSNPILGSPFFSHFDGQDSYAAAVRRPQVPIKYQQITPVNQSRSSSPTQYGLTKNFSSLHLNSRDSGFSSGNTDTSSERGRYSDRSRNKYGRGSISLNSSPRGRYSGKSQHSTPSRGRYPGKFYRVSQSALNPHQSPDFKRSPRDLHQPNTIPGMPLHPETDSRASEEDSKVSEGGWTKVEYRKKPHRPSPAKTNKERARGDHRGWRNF

Cc1nc(C2CCN(C(=O)c3ccc(OC(F)(F)F)cc3N)CC2)c2ncc(N3CCN(C)CC3)cc2n1 [BAY-693]
inactive: residual activity [1] 97% | residual activity [2] 95% | residual activity [3] 100% | residual activity [4] 92% | inhibition [5] 6.25% | residual activity [6] 100% | residual activity [7] 94% | residual activity [8] 100%

CN1CCN(c2cnc3c(C4CCN(C(=O)c5ccc(OC(F)(F)F)cc5N)CC4)ncnc3c2)CC1 [BAY-885]
inactive: residual activity [1] 98% | residual activity [2] 98% | residual activity [3] 100% | residual activity [4] 100% | inhibition [5] 5.22% | residual activity [6] 100% | residual activity [7] 92% | residual activity [8] 100%
